Measured values as given in patent publication US10385021B2, “Carbamate compound and use thereof” (SUMITOMO CHEMICAL COMPANY, LIMITED, priority 2015, dated 2019).

System: wheat rust fungus (Puccinia recondita)
Assay: Test Example 2: wheat rust, foliar spray before inoculation, lesion area
Assay type: in vivo
Settings: 200 ppm foliar spray, wheat (Shirogane), inoculated 5 days after spraying, formulation per Formulation Example 6

## COC(=O)Nc1ccccc1COc1ccc(-c2ccccn2)cc1 [methyl N-(2-{[4-(pyridine-2-yl)phenoxy)methyl}phenyl)carbamate]
  area of the lesion relative to untreated wheat: ≥ 70%
